# From PubChem BioAssay (NCI)
#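 Five concentrations, 48 hours, 96-well plates. The concentration for full growth arrest is given as TGI.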
# How the values were obtained:
# Test in all cases: inhibition of tumour cell growth, NCI panel, 48 h
# [1] = system: HL-60(TB) leukemia
# [2] = system: UACC-62 melanoma
# [3] = system: CAKI-1 renal
# [4] = system: OVCAR-3 ovarian
# [5] = system: ACHN renal
# [6] = system: SR leukemia
# [7] = system: CCRF-CEM leukemia
# [8] = system: SW-620 colon
# [9] = system: NCI-H460 lung
# [10] = system: KM12 colon
# [11] = system: HOP-62 NSCLC
# [12] = system: RPMI-8226 leukemia
# [13] = system: SF-295 CNS
# [14] = system: OVCAR-4 ovarian
# [15] = system: A498 renal
# [16] = system: MDA-MB-231 breast
# [17] = system: MCF7 breast
# [18] = system: SK-MEL-2 melanoma
# [19] = system: HS 578T breast
Compound,TGI [1] [µM],TGI [2] [µM],TGI [3] [µM],TGI [4] [µM],TGI [5] [µM],TGI [6] [µM],TGI [7] [µM],TGI [8] [µM],TGI [9] [µM],TGI [10] [µM],TGI [11] [µM],TGI [12] [µM],TGI [13] [µM],TGI [14] [µM],TGI [15] [µM],TGI [16] [µM],TGI [17] [µM],TGI [18] [µM],TGI [19] [µM]
C#CCNC(=O)NCCCC(NC(C)=O)C(=O)NCc1ccccc1 (configuration not stated),> 100,> 100,> 100,> 100,> 100,> 100,> 100,> 100,> 100,> 100,> 100,> 100,> 100,> 100,> 100,–,–,–,–
COc1ccc(N(CN2C(=O)CCC2C(=O)O)C(C)=O)cc1 (configuration not stated),> 100,> 100,> 100,> 100,> 100,–,> 100,> 100,> 100,> 100,> 100,> 100,> 100,> 100,> 100,> 100,> 100,> 100,> 100
CN(C)CCC(O)(c1ccccc1)C(O)(CCN(C)C)c1ccccc1 (configuration not stated),–,> 100,> 100,> 100,> 100,–,> 100,> 100,> 100,> 100,> 100,> 100,> 100,> 100,> 100,–,–,> 100,–
O=[N+]([O-])c1ccc2[nH]nc(OCc3ccccn3)c2c1,> 100,> 100,> 100,> 100,> 100,> 100,> 100,> 100,> 100,> 100,> 100,> 100,> 100,> 100,> 100,> 100,–,> 100,> 100
Cn1ccc(C(=O)N2CCSC2=S)c(OCc2ccccc2)c1=O,> 100,> 100,> 100,–,> 100,93.6,> 100,> 100,> 100,> 100,–,> 100,–,> 100,> 100,> 100,–,> 100,> 100
COC(=O)C(C)(C)OCc1ccc(C2NC(=O)N(c3cccc(Cl)c3)C(=O)N2c2cccc(Cl)c2)cc1 (configuration not stated),–,> 100,> 100,> 100,> 100,96.6,> 100,> 100,> 100,> 100,> 100,> 100,> 100,> 100,–,> 100,> 100,> 100,44.4
CCOc1ccc(NC(=O)C2=C(C)NC(C)=C(C(=O)Nc3ccc(OCC)cc3)C2c2ccc(O)c(OC)c2)cc1,> 100,–,> 100,> 100,> 100,–,> 100,> 100,> 100,> 100,92.9,> 100,> 100,> 100,66.7,–,–,> 100,–
CC(=O)N1CN2C(=O)CCC2c2ccccc21 (configuration not stated),–,> 100,> 100,> 100,> 100,97.9,> 100,> 100,> 100,> 100,> 100,> 100,> 100,> 100,> 100,> 100,> 100,> 100,> 100
O=C(NCCCCN(CCCNC(=O)C(F)(F)F)Cc1ccc2ccccc2c1)C(F)(F)F,> 100,37,28.1,–,38.9,–,–,32.4,29.9,32.1,–,–,32.7,37.8,62.2,31.1,27.8,–,38.6
CCOC(=O)[C@]12C(=C(c3ccccc3)O[C@H]3C=CCC[C@H]31)C(=O)C(=O)N2c1ccccc1,–,> 100,> 100,> 100,> 100,46.8,–,–,> 100,> 100,> 100,51.6,> 100,> 100,> 100,> 100,> 100,> 100,–
COc1ccc(/C=C/c2sc3ccccc3[n+]2CCCCI)cc1OC,7.48,> 10,> 10,> 10,> 10,–,> 10,> 10,> 10,> 10,> 10,> 10,> 10,> 10,> 10,> 10,> 10,9.47,> 10
O=c1[nH]cnc2c1sc1nc3ccccc3n12,–,> 100,> 100,> 100,> 100,–,> 100,> 100,–,54.9,> 100,> 100,> 100,> 100,> 100,> 100,> 100,> 100,> 100
N#Cc1n[nH]n(C2CCCCC2)c1=O,> 100,> 100,> 100,> 100,> 100,–,> 100,> 100,> 100,> 100,> 100,–,> 100,> 100,> 100,> 100,> 100,> 100,> 100
n1onc2c1NC1Nc3nonc3NC1N2 (configuration not stated),> 100,–,> 100,> 100,> 100,–,> 100,> 100,> 100,> 100,> 100,> 100,> 100,> 100,> 100,–,> 100,–,> 100
CC1=NNC(=O)C1C1CC(c2c[nH]c3ccccc23)=NNC1=S (configuration not stated),> 100,> 100,> 100,> 100,> 100,–,> 100,> 100,> 100,> 100,> 100,> 100,> 100,–,> 100,> 100,–,> 100,> 100
COC(=O)[C@H](Cc1ccccc1)NC(=O)N1CCCN(C(=O)N[C@@H](Cc2ccccc2)C(=O)OC)CCCN(C(=O)N[C@@H](Cc2ccccc2)C(=O)OC)CCC1,69.2,30.2,> 100,32.4,31.3,–,92.8,39.7,81.5,> 100,35.5,> 100,37.6,54.7,44.3,–,49.3,29.5,44.6
N#CC1Cc2cc3c(cc21)OCO3 (configuration not stated),–,> 100,> 100,> 100,> 100,> 100,> 100,> 100,> 100,> 100,> 100,–,> 100,> 100,> 100,> 100,> 100,> 100,> 100
COC(=O)C1=C(C(=O)OC)C(Cc2ccccc2)(OO)OC1=O (configuration not stated),3.66,15.5,19.4,19.7,9.36,> 100,6.69,> 100,> 100,39.1,–,–,> 100,52.3,–,> 100,53.9,96.2,–
CCOC(O)(NC(=O)C(C(F)(F)F)C(F)(F)F)C(F)(F)F (configuration not stated),> 100,–,–,–,> 100,> 100,> 100,> 100,–,–,–,> 100,–,–,> 100,–,–,> 100,> 100
COC(=O)[C@@H]1C=C[C@H](OC2OC(COC(C)=O)C(OC(C)=O)C(OC(C)=O)C2OC(C)=O)n2c(=O)c3ccccc3c(=O)n21 (some centres not stated),30.2,23,13,22.2,24.1,> 100,24.9,24.9,29,27.4,36.3,35.6,53.9,34.6,32.6,–,29.3,24.5,76.2
O=S(=O)(N/N=C1\CC2CCC1C2)c1ccccc1 (configuration not stated),> 100,> 100,> 100,> 100,> 100,> 100,> 100,> 100,> 100,> 100,> 100,> 100,> 100,> 100,–,–,> 100,> 100,> 100
Cc1c(C#N)c2ccccc2c2nc3ccccc3n12,> 100,> 100,> 100,> 100,> 100,–,> 100,> 100,> 100,> 100,> 100,> 100,> 100,> 100,> 100,86.9,> 100,> 100,> 100
CC(C)CC[C@H](O)[C@@H](C)[C@H]1[C@@H](OC2OC(C)C(O)C(O)C2O)C[C@H]2[C@@H]3CC=C4C[C@@H](O)CC[C@]4(C)[C@H]3[C@@H](O)C[C@]12C (some centres not stated),> 100,3.21,> 64,> 100,> 100,–,–,> 19.9,> 100,–,> 68.7,0.229,0.222,–,> 34.9,> 100,–,> 100,2.36
Cc1ccc(Cc2n[nH]c(=O)n2-c2ccccc2)cc1,> 100,> 100,> 100,–,> 100,> 100,–,> 100,> 100,> 100,–,76,> 100,–,> 100,> 100,> 100,> 100,–
CCOc1ccc(Nc2nc3c(s2)C(=O)c2ccccc2C3=O)cc1,> 100,5.13,20.7,12.9,28.9,–,> 100,15.2,38.9,27.9,32,> 100,23.5,21.3,29.7,18.4,38.4,30.6,> 100
CC(C)C[C@H](NC(=O)[C@H](Cc1ccccc1)NC(=O)CCc1ccccc1)B(O)O,–,–,0.0554,< 0.01,< 0.01,–,> 100,< 0.0104,< 0.0104,0.0101,< 0.01,> 100,< 0.01,< 0.01,< 0.01,< 0.01,0.225,< 0.01,< 0.01
Cc1ccc(Cc2n[nH]c(=O)n2/N=C\CC/C=N\n2c(Cc3ccc(C)cc3)n[nH]c2=O)cc1,> 100,> 100,> 100,> 100,> 100,–,> 100,> 100,–,> 100,24.6,> 100,> 100,> 100,> 100,> 100,> 100,80.5,45.5
O=c1[nH]c2ccc(Cl)cc2c2oc(-c3ccccc3)nc12,–,> 100,39.7,46.6,51.3,62.3,> 100,> 100,36.9,> 100,43.6,64.7,46.6,35.4,43.4,43.4,> 100,57.5,41.2
